The test system of one data set is interferon (α). Nature of the data set: Cytokine Induction in Human Cells: interferon (α) by ELISA. The conditions noted are these: PBMC; human PBMCs, incubated 18 to 24 hours, lowest concentration found to induce interferon. The class given is cell-based. The procedure, abridged:
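Healthy-donor human PBMCs (1.5–2×10^6 cells/mL final, RPMI with 10% FBS) exposed to serially diluted compound (≤1% DMSO) for 18–24 h at 37 °C, 5% CO2. Supernatant IFN-α measured by ELISA; value reported is lowest concentration inducing interferon.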
For orientation: An ELISA detects its analyte on a solid surface through an enzyme-linked reagent.

The test system of data set [1] is tumor necrosis factor (α). In words: Cytokine Induction in Human Cells: tumor necrosis factor (α) by ELISA. The conditions noted are these: PBMC; human PBMCs, incubated 18 to 24 hours, lowest concentration found to induce tumor necrosis factor. It counts as cell-based. The procedure, abridged:
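Healthy-donor PBMCs (1.5–2×10^6 cells/mL final, RPMI with 10% FBS) incubated 18–24 h at 37 °C with compound in three- or ten-fold serial dilutions, DMSO ≤1% final. Supernatant TNF measured by ELISA; value is lowest concentration inducing TNF.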

Bounds are passed on as bounds.

For orientation: melting point means the temperature of the solid-liquid transition. The minimal effective concentration is the smallest amount tested that counted as effective. A higher minimal effective concentration goes with a need for much substance. As for `Cc1nc2c(N)nc3ccccc3c2n1CCCCNC(=O)Nc1ccccc1` [Example 144, N-[4-(4-amino-2-methyl-1H-imidazo[4,5-c]quinolin-1-yl)butyl]-N′-phenylurea], the melting point was 171.5 to 172.5 °C. The minimal effective concentration with interferon (α) amounted to 0.04 µM. This molecule also yielded a minimal effective concentration in data set [1] of 0.37 µM.

For `CC(C)(C)OC(=O)NCCCn1cnc2c(N)nc3ccccc3c21` [Example 173, tert-butyl 3-(4-amino-1H-imidazo[4,5-c]quinolin-1-yl)propylcarbamate], the melting point was 196 to 198 °C. Moreover, in the data set with interferon (α), the minimal effective concentration worked out at 1.11 µM. The same molecule displayed a minimal effective concentration in data set [1] of 10 µM.

As for `CCCNC(=S)NCCCn1c(CCOC)nc2c(N)nc3ccccc3c21` [Example 156, N-{3-[4-amino-2-(2-methoxyethyl)-1H-imidazo[4,5-c]quinolin-1-yl]propyl}-N′-propylthiourea], the melting point fell in the range of 172 to 173 °C. In the data set with interferon (α), this molecule registered a minimal effective concentration of 0.01 µM. In data set [1], this molecule gave a minimal effective concentration of 1.11 µM.

The molecule `COCCc1nc2c(N)nc3ccccc3c2n1CCCNC(=O)N1CCOCC1` [Example 163, N-{3-[4-amino-2-(2-methoxyethyl)-1H-imidazo[4,5-c]quinolin-1-yl]propyl}morpholine-4-carboxamide] returned a melting point of 194 to 196 °C. The minimal effective concentration in the data set on interferon (α) is 0.01 µM. Besides, the minimal effective concentration in data set [1] came out at 0.01 µM.

The molecule `Cc1nc2c(N)nc3ccccc3c2n1CCCNC(=O)OC(C)(C)C` [Example 176, tert-butyl 3-(4-amino-2-methyl-1H-imidazo[4,5-c]quinolin-1-yl)propylcarbamate] showed a melting point of 112 to 115 °C. The same molecule returned a minimal effective concentration in the data set with interferon (α) of 0.12 µM. Further, the minimal effective concentration in data set [1] is 1.11 µM.

For the molecule `CCCCc1nc2c(N)nc3ccccc3c2n1CCCNC(=O)NC1CCCCC1` [Example 153, N-[3-(4-amino-2-butyl-1H-imidazo[4,5-c]quinolin-1-yl)propyl]-N′-cyclohexylurea], the melting point lay in the range of 200 to 201 °C. Moreover, the minimal effective concentration in the data set with interferon (α) is 0.01 µM. The minimal effective concentration in data set [1] stood at 0.12 µM.

With `CCCCCCc1nc2c(N)nc3ccccc3c2n1CCCCNC(=O)Nc1ccccc1` [Example 155, N-[4-(4-amino-2-hexyl-1H-imidazo[4,5-c]quinolin-1-yl)butyl]-N′-phenylurea], the melting point was 170.4 to 171.6 °C. For the same molecule, the minimal effective concentration in the data set with interferon (α) was 3.33 µM. For the same molecule, the minimal effective concentration in data set [1] was 10 µM.

In the case of `Nc1nc2ccccc2c2c1ncn2CCCCNC(=O)N1CCOCC1` [Example 5, N^4-[4-(4-Amino-1H-imidazo[4,5-c]quinolin-1-yl)butyl]-4-morpholinecarboxamide], the melting point lay in the range of 177 to 179.5 °C. The molecule further showed a minimal effective concentration in the data set with interferon (α) of 3.33 µM. Also, the minimal effective concentration in data set [1] was > 30 µM.

Turning to `CCCCc1nc2c(N)nc3ccccc3c2n1CCCCNC(=O)Nc1ccccc1` [Example 164, N-[4-(4-amino-2-butyl-1H-imidazo[4,5-c]quinolin-1-yl)butyl]-N′-phenylurea], the melting point was in the range of 185 to 187 °C. In addition, the minimal effective concentration in the data set with interferon (α) was 0.04 µM. Moreover, the minimal effective concentration in data set [1] stood at 0.12 µM.

`CN(C(=O)NCCCCn1cnc2c(N)nc3ccccc3c21)c1ccccc1` [Example 6, N^1-[4-(4-Amino-1H-imidazo[4,5-c]quinolin-1-yl)butyl]-N-methyl-N-phenylurea] gave a melting point of 87 to 88 °C. For the same molecule, in the data set with interferon (α), the minimal effective concentration worked out at 0.37 µM. Further, the minimal effective concentration in data set [1] was > 30 µM.

`CCOCc1nc2c(N)nc3ccccc3c2n1CCCNC(=O)OC(C)(C)C` [Example 175, tert-butyl 3-[4-amino-2-(ethoxymethyl)-1H-imidazo[4,5-c]quinolin-1-yl]propylcarbamate]: the melting point was 124 to 126 °C. Besides, the minimal effective concentration with interferon (α) was found to be 0.04 µM. Besides, the minimal effective concentration in data set [1] amounted to 0.37 µM.

`COCCc1nc2c(N)nc3ccccc3c2n1CCNC(=O)OC(C)(C)C` [Example 178, tert-butyl 2-[4-amino-2-(methoxyethyl)-1H-imidazo[4,5-c]quinolin-1-yl]ethylcarbamate] registered a melting point of 173 to 175 °C. For the same molecule, the minimal effective concentration with interferon (α) turned out to be 0.12 µM. Also, the minimal effective concentration in data set [1] is 1.11 µM.

Take `CCCCc1nc2c(N)nc3ccccc3c2n1CCCNC(=S)Nc1ccccc1` [Example 149, N-[3-(4-amino-2-butyl-1H-imidazo[4,5-c]quinolin-1-yl)propyl]-N′-phenylthiourea]: the melting point lay within 142.8 to 144 °C. Moreover, in the data set with interferon (α), the minimal effective concentration was found to be 0.04 µM. For the same molecule, the minimal effective concentration in data set [1] came to 0.37 µM.

Take `CCOCc1nc2c(N)nc3ccccc3c2n1CCNC(=O)OC(C)(C)C` [Example 177, tert-butyl 2-[4-amino-2-(ethoxymethyl)-1H-imidazo[4,5-c]quinolin-1-yl]ethylcarbamate]: the melting point lay in the range of 201 to 202 °C. In addition, the minimal effective concentration with interferon (α) was 0.04 µM. Moreover, the minimal effective concentration in data set [1] worked out at 0.37 µM.

The values are drawn from patent US7157453B2, “Urea substituted imidazoquinolines” (3M Innovation Properties Company, priority 1999, dated 2007).
